Results from ChEMBL document CHEMBL3885881, “DrugMatrix”.

Organism: Rattus norvegicus
Assay: DrugMatrix - Regimen: Daily Repeat
Type: toxicity, organism-based, Sprague-Dawley
Set-up: regimen Daily Repeat, gender Male, age 6-8 weeks
Settings: in vivo, po, route oral GAVAGE, […]; for ABSOLUTE BASOPHIL / BASOPHIL / EOSINOPHIL / NUCLEATED RED BLOOD CELLS / MONOCYTE / ABSOLUTE EOSINOPHIL / ABSOLUTE LYMPHOCYTE / ABSOLUTE MONOCYTE / ABSOLUTE SEGMENTED NEUTROPHIL / ERYTHROCYTE COUNT / HEMATOCRIT / HEMOGLOBIN / LEUKOCYTE COUNT / LYMPHOCYTE / MEAN CORPUSCULAR HEMOGLOBIN / MEAN CORPUSCULAR HEMOGLOBIN CONCENTRATION / MEAN CORPUSCULAR VOLUME / NEUTROPHIL / PLATELET COUNT: tissue Blood; for TOTAL BILIRUBIN / URIC ACID / ALANINE AMINOTRANSFERASE / ALBUMIN / ALKALINE PHOSPHATASE / ASPARTATE AMINOTRANSFERASE / BLOOD UREA NITROGEN / CARBON DIOXIDE / CHLORIDE / CHOLESTEROL / CREATINE PHOSPHOKINASE / CREATININE / GLUCOSE / LACTATE DEHYDROGENASE / LIPASE / PHOSPHORUS / POTASSIUM / SODIUM / TOTAL PROTEIN: tissue Plasma
[1] = 0 mg/kg, 72 h, dose level Control, time 3 day
[2] = 0 mg/kg, 120 h, dose level Control, time 5 day
[3] = 10 mg/kg, 72 h, dose level M1, time 3 day
[4] = 10 mg/kg, 120 h, dose level M1, time 5 day
[5] = 650 mg/kg, 72 h, dose level High, time 3 day
[6] = 650 mg/kg, 120 h, dose level High, time 5 day
[7] = 72 h, dose 6.5 mg/Kg, dose level Low, time 3 day
[8] = 120 h, dose 6.5 mg/Kg, dose level Low, time 5 day

O=C(c1ccc(OCCN2CCCCC2)cc1)c1c(-c2ccc(O)cc2)sc2cc(O)ccc12 [RALOXIFENE]
ABSOLUTE BASOPHIL [1]: 0 CELLS/uL
BASOPHIL [1]: 0%
EOSINOPHIL [1]: 0.17%
NUCLEATED RED BLOOD CELLS [1]: 0 /100WBC
ABSOLUTE BASOPHIL [2]: 0 CELLS/uL
BASOPHIL [2]: 0%
MONOCYTE [2]: 1.17%
TOTAL BILIRUBIN [2]: 0.1 mg/dL
URIC ACID [2]: 0.52 mg/dL
ABSOLUTE BASOPHIL [3]: 0 CELLS/uL
ABSOLUTE EOSINOPHIL [3]: 29.33 CELLS/uL
ABSOLUTE LYMPHOCYTE [3]: 7440 CELLS/uL
ABSOLUTE MONOCYTE [3]: 116 CELLS/uL
ABSOLUTE SEGMENTED NEUTROPHIL [3]: 681.33 CELLS/uL
BASOPHIL [3]: 0%
EOSINOPHIL [3]: 0.33%
ERYTHROCYTE COUNT [3]: 5.44 x10E6/uL
HEMATOCRIT [3]: 34.47%
HEMOGLOBIN [3]: 13.3 G/DL
LEUKOCYTE COUNT [3]: 8.27 x10E3/uL
LYMPHOCYTE [3]: 90.33%
MEAN CORPUSCULAR HEMOGLOBIN [3]: 24.53 pg
MEAN CORPUSCULAR HEMOGLOBIN CONCENTRATION [3]: 38.6 G/DL
MEAN CORPUSCULAR VOLUME [3]: 63.53 fL
MONOCYTE [3]: 1.33%
NEUTROPHIL [3]: 8%
NUCLEATED RED BLOOD CELLS [3]: 0.33 /100WBC
PLATELET COUNT [3]: 1223 x10E3/uL
ALANINE AMINOTRANSFERASE [3]: 53.67 u/L
ALBUMIN [3]: 4.43 G/DL
ALKALINE PHOSPHATASE [3]: 398.33 u/L
ASPARTATE AMINOTRANSFERASE [3]: 90.67 u/L
BLOOD UREA NITROGEN [3]: 10 mg/dL
CARBON DIOXIDE [3]: 31.67 mmol/L
CHLORIDE [3]: 101.67 MEQ/L
CHOLESTEROL [3]: 52.67 mg/dL
CREATINE PHOSPHOKINASE [3]: 300.33 u/L
CREATININE [3]: 0.24 mg/dL
GLUCOSE [3]: 151.33 mg/dL
LACTATE DEHYDROGENASE [3]: 123 u/L
LIPASE [3]: 9.33 u/L
PHOSPHORUS [3]: 10.93 mg/dL
POTASSIUM [3]: 5.67 MEQ/L
SODIUM [3]: 147.7 MEQ/L
TOTAL BILIRUBIN [3]: 0.13 mg/dL
TOTAL PROTEIN [3]: 6.5 G/DL
URIC ACID [3]: 0.87 mg/dL
ABSOLUTE BASOPHIL [4]: 0 CELLS/uL
ABSOLUTE EOSINOPHIL [4]: 34 CELLS/uL
ABSOLUTE LYMPHOCYTE [4]: 8594.67 CELLS/uL
ABSOLUTE MONOCYTE [4]: 97 CELLS/uL
ABSOLUTE SEGMENTED NEUTROPHIL [4]: 974.33 CELLS/uL
BASOPHIL [4]: 0%
EOSINOPHIL [4]: 0.33%
ERYTHROCYTE COUNT [4]: 5.62 x10E6/uL
HEMATOCRIT [4]: 34.3%
HEMOGLOBIN [4]: 13.33 G/DL
LEUKOCYTE COUNT [4]: 9.7 x10E3/uL
LYMPHOCYTE [4]: 89%
MEAN CORPUSCULAR HEMOGLOBIN [4]: 23.8 pg
MEAN CORPUSCULAR HEMOGLOBIN CONCENTRATION [4]: 38.93 G/DL
MEAN CORPUSCULAR VOLUME [4]: 61.13 fL
MONOCYTE [4]: 1%
NEUTROPHIL [4]: 9.67%
NUCLEATED RED BLOOD CELLS [4]: 0 /100WBC
PLATELET COUNT [4]: 1211.33 x10E3/uL
ALANINE AMINOTRANSFERASE [4]: 42.33 u/L
ALBUMIN [4]: 4.5 G/DL
ALKALINE PHOSPHATASE [4]: 301.33 u/L
ASPARTATE AMINOTRANSFERASE [4]: 77.67 u/L
BLOOD UREA NITROGEN [4]: 9 mg/dL
CARBON DIOXIDE [4]: 28.67 mmol/L
CHLORIDE [4]: 102 MEQ/L
CHOLESTEROL [4]: 50 mg/dL
CREATINE PHOSPHOKINASE [4]: 198.67 u/L
CREATININE [4]: 0.33 mg/dL
GLUCOSE [4]: 168.33 mg/dL
LACTATE DEHYDROGENASE [4]: 130.67 u/L
LIPASE [4]: 8.33 u/L
PHOSPHORUS [4]: 12.1 mg/dL
POTASSIUM [4]: 4.86 MEQ/L
SODIUM [4]: 146.9 MEQ/L
TOTAL BILIRUBIN [4]: 0.1 mg/dL
TOTAL PROTEIN [4]: 6.33 G/DL
URIC ACID [4]: 0.77 mg/dL
ABSOLUTE BASOPHIL [5]: 0 CELLS/uL
BASOPHIL [5]: 0%
NUCLEATED RED BLOOD CELLS [5]: 0 /100WBC
LIPASE [5]: 10.33 u/L
URIC ACID [5]: 0.67 mg/dL
ABSOLUTE BASOPHIL [6]: 0 CELLS/uL
BASOPHIL [6]: 0%
NUCLEATED RED BLOOD CELLS [6]: 0 /100WBC
ABSOLUTE BASOPHIL [7]: 0 CELLS/uL
ABSOLUTE EOSINOPHIL [7]: 59.33 CELLS/uL
ABSOLUTE LYMPHOCYTE [7]: 5494.67 CELLS/uL
ABSOLUTE MONOCYTE [7]: 60.33 CELLS/uL
ABSOLUTE SEGMENTED NEUTROPHIL [7]: 452.33 CELLS/uL
BASOPHIL [7]: 0%
EOSINOPHIL [7]: 0.67%
ERYTHROCYTE COUNT [7]: 5.5 x10E6/uL
HEMATOCRIT [7]: 35.2%
HEMOGLOBIN [7]: 13.7 G/DL
LEUKOCYTE COUNT [7]: 6.07 x10E3/uL
LYMPHOCYTE [7]: 90.33%
MEAN CORPUSCULAR HEMOGLOBIN [7]: 24.87 pg
MEAN CORPUSCULAR HEMOGLOBIN CONCENTRATION [7]: 38.93 G/DL
MEAN CORPUSCULAR VOLUME [7]: 63.93 fL
MONOCYTE [7]: 1.33%
NEUTROPHIL [7]: 7.67%
NUCLEATED RED BLOOD CELLS [7]: 0.67 /100WBC
PLATELET COUNT [7]: 1046.33 x10E3/uL
ALANINE AMINOTRANSFERASE [7]: 63 u/L
ALBUMIN [7]: 4.13 G/DL
ALKALINE PHOSPHATASE [7]: 536.33 u/L
ASPARTATE AMINOTRANSFERASE [7]: 92 u/L
BLOOD UREA NITROGEN [7]: 8.67 mg/dL
CARBON DIOXIDE [7]: 29.67 mmol/L
CHLORIDE [7]: 98.33 MEQ/L
CHOLESTEROL [7]: 41 mg/dL
CREATINE PHOSPHOKINASE [7]: 405 u/L
CREATININE [7]: 0.12 mg/dL
GLUCOSE [7]: 157 mg/dL
LACTATE DEHYDROGENASE [7]: 73.33 u/L
LIPASE [7]: 9.67 u/L
PHOSPHORUS [7]: 10.5 mg/dL
POTASSIUM [7]: 5.24 MEQ/L
SODIUM [7]: 143.33 MEQ/L
TOTAL BILIRUBIN [7]: 0.13 mg/dL
TOTAL PROTEIN [7]: 6.07 G/DL
URIC ACID [7]: 0.63 mg/dL
ABSOLUTE BASOPHIL [8]: 0 CELLS/uL
ABSOLUTE EOSINOPHIL [8]: 0 CELLS/uL
ABSOLUTE LYMPHOCYTE [8]: 6955.67 CELLS/uL
ABSOLUTE MONOCYTE [8]: 124.33 CELLS/uL
ABSOLUTE SEGMENTED NEUTROPHIL [8]: 286.67 CELLS/uL
BASOPHIL [8]: 0%
EOSINOPHIL [8]: 0%
ERYTHROCYTE COUNT [8]: 5.53 x10E6/uL
HEMATOCRIT [8]: 34.77%
HEMOGLOBIN [8]: 13.37 G/DL
LEUKOCYTE COUNT [8]: 7.37 x10E3/uL
LYMPHOCYTE [8]: 94.33%
MEAN CORPUSCULAR HEMOGLOBIN [8]: 24.17 pg
MEAN CORPUSCULAR HEMOGLOBIN CONCENTRATION [8]: 38.47 G/DL
MEAN CORPUSCULAR VOLUME [8]: 62.87 fL
MONOCYTE [8]: 1.67%
NEUTROPHIL [8]: 4%
NUCLEATED RED BLOOD CELLS [8]: 0 /100WBC
PLATELET COUNT [8]: 1226.67 x10E3/uL
ALANINE AMINOTRANSFERASE [8]: 57 u/L
ALBUMIN [8]: 4.1 G/DL
ALKALINE PHOSPHATASE [8]: 411.67 u/L
ASPARTATE AMINOTRANSFERASE [8]: 105.33 u/L
BLOOD UREA NITROGEN [8]: 10.33 mg/dL
CARBON DIOXIDE [8]: 28.33 mmol/L
CHLORIDE [8]: 99.33 MEQ/L
CHOLESTEROL [8]: 26 mg/dL
CREATINE PHOSPHOKINASE [8]: 332.33 u/L
CREATININE [8]: 0.19 mg/dL
GLUCOSE [8]: 169 mg/dL
LACTATE DEHYDROGENASE [8]: 99.67 u/L
LIPASE [8]: 30 u/L
PHOSPHORUS [8]: 11.23 mg/dL
POTASSIUM [8]: 5.86 MEQ/L
SODIUM [8]: 144.43 MEQ/L
TOTAL BILIRUBIN [8]: 0.1 mg/dL
TOTAL PROTEIN [8]: 5.87 G/DL
URIC ACID [8]: 1 mg/dL
